Where two headings read alike, the source gives them in different places.
Assays:
[1] = cited from earlier work
[2] = sub-antimicrobial dose, cited from earlier work
[3] = system: Mycobacterium tuberculosis strains; conditions: typical Mycobacterium tuberculosis strains; cited from earlier work
[4] = Absorption into the blood following sublingual versus oral administration of D-cycloserine; type: in vivo, Sprague-Dawley rats; conditions: rat; for concentration at 0 min / concentration at 10 min / concentration at 20 min / concentration at 40 min / concentration at 80 min: male, Sprague-Dawley, plasma, 15 mg/kg, read-out: DCS plasma level; for concentration at 0 min: 0 minutes (baseline before DCS administration); for concentration at 10 min: 10 minutes elapsed; for concentration at 20 min: 20 minutes elapsed; for concentration at 40 min: 40 minutes elapsed; for concentration at 80 min: 80 minutes elapsed
Procedure: Subjects: 18 male, Sprague-Dawley rats (Charles River, Raleigh N.C.).
Procedure: The rats were implanted with intravenous catheters using the methods of Thrivikraman et al., (“Jugular vein catheterization for repeated blood sampling in the unrestrained conscious rat” (2002) Brain Res. Brain Res. Protoc., 10(2), p. 84-94). Following two days of recovery, rats were lightly anesthetized with isofluorothane and given DCS either sublingually (n=10) or orally (n=8). D-cycloserine was dissolved in saline and given at a volume of 75 μL/rat sublingually and (after dilution by a factor of two) 150 μL/rat when administered orally (concentration of 15 mg/kg). Aliquots of 0.5-1.0 mL blood samples were collected: at baseline before DCS administration; and subsequently at 10, 20, 40, and 80 minutes after DCS administration. Blood samples were injected into pre-heparinized tubes and immediately placed on ice. Because the assays required at least 1 mL of plasma, samples from two rats given the same treatment and sampled at the same time were combined so that there were 25 samples from the sublingual group (10 rats/2×5 samples) and 20 samples from the oral group (8 rats/2×5 samples). Plasma was separated by centrifugation at 770 g for 10 minutes, placed in polypropylene tubes, frozen at −80° C., then shipped on dry ice to an outside laboratory to assay DCS levels. […] At the dosages studied, the resulting DCS plasma levels were near the lower detection limits of the assay.

[5] = typical doses for the treatment of tuberculosis (500-1000 mg/day), chronic dosing; cited from earlier work

Compound: NC1CONC1=O (stereo not drawn) [DCS, 4-amino-1,2-oxazolidin-3-one]
- serum concentrations generally maintained ([1]; dose of 500 mg/day, chronic treatment): 25000 to 30000 ng/mL
- half-life ([1]; known oral tablets, primarily renal excretion): 10 h
- time of peak serum concentrations after dosing ([1]; known oral tablets): 3 to 8 h
- peak serum concentrations ([2]; child subject, less than or equal to 2 mg/kg): less than or equal to 5 μg/mL
- peak serum concentrations ([2]; less than or equal to 2 mg/kg and greater than about 0.2 mg/kg): less than or equal to 5 μg/mL
- minimum inhibitory concentrations (MIC) in vitro [3]: 6 to 25 µg/mL
- concentration at 0 min ([4]; other: sublingual, sublingual): 0 ng/mL
- concentration at 10 min ([4]; other: sublingual, sublingual): 900 ng/mL
- concentration at 20 min ([4]; other: sublingual, sublingual): 1600 ng/mL
- concentration at 40 min ([4]; other: sublingual, sublingual): 4700 ng/mL
- concentration at 80 min ([4]; other: sublingual, sublingual): 5200 ng/mL
- concentration at 0 min ([4]; oral): 0 ng/mL
- concentration at 10 min ([4]; oral): 1600 ng/mL
- concentration at 20 min ([4]; oral): 2300 ng/mL
- concentration at 40 min ([4]; oral): 5400 ng/mL
- concentration at 80 min ([4]; oral): 5400 ng/mL
- blood plasma concentrations after sublingual administration relative to oral administration ([4]; sublingual versus oral): comparable to those achieved by oral administration
- side effects in treated subjects [5]: significant neurological side effects

Reference: US20100113453A1, “Sublingual Formulations of D-Cycloserine and Methods of Using Same” (priority 2007, published 2010)
